Columns and labels:
[1] = tested on: murine epidermis; experiment: Epidermal DNA synthesis, [3H]-thymidine incorporation in vivo; parameters: species or system mouse; conditions: CBE 750 nmol/5cm^2/day, five days; FIG. 17
[2] = tested on: murine epidermis; experiment: Total epidermal DNA content after topical CBE; type: in vivo, mouse
Method: In addition to measuring DNA synthesis by [^3H]-thymidine incorporation, total epidermal DNA content was determined after applications of CBE. 100 μl of epidermal homogenate was obtained from mice and stored at −70° C. Samples were diluted with Hoechst buffer (pH 7.4) in duplicate. Each sample was brought up to 1 ml with Hoechst buffer. 1 ml of bisbenzimadazole (diluted 1:1000 with dist H2O) was added and samples were vortexed. Standards were prepared using 134 μg/ml calf thymus DNA diluted 1:10 with Hoechst buffer. Final concentration of DNA ranged from 0.067 to 0.335 μg. All samples and standards were covered for 2 hours and absorbance at […] was determined (LaBarca, C. and Paigan (1980) Anal. Biochem. 102:344-352).

[3] = tested on: murine epidermis; experiment: Epidermal DNA synthesis, [3H]-thymidine incorporation in vivo; parameters: species or system mouse
Method: To assess the effects of a topical β-glucocerebrosidase inhibitor, conduritol-B-epoxide (CBE) in epidermal DNA synthesis two slightly different dosage protocols have been employed. In all cases, mice were treated topically with 20 μl to 40 μl of 250 nmol/μl CBE bid for 2-5 days on the right flank. On the last day, the mice were injected intraperitoneally with ^3H-thymidine (1 μCi/G body weight) diluted 1:10 in 100-200 μl isotonic NaCl. After one hour the mice were sacrificed. Whole skin was excised and subcutaneous fascia and fat were removed by scraped. Skin samples were placed dermis side downward onto 10 mM EDTA in phosphate buffered saline (PBS-CMF; pH 7.4) and incubated at 37° C. for 40 min. The skin was blotted dry with a tissue and epidermis removed by scraping with a surgical blade. The epidermis was minced into small pieces and placed in microcentrifuge vials. Samples were immediately snap frozen and stored in liquid nitrogen until immediately prior to preparation of the epidermal homogenates. 300 μl of 10 mM EDTA in PBS-CMF (pH 7.4) was added to all samples which then underwent tissue homogenization using Polytron (15 sec, ×2 on ice. Polytron tip was rinsed between each homogenization with 400 μl 10 mM EDTA in PBS-CMF. Rinses were combined with same original samples. Samples were sonicated twice for 10 sec on ice. 100 μl of 20% TCA was added and left for 10 min at 4° C. Samples were centrifuged at 2000×g at 4° C. for 5 min. The supernatant was discarded. 500 μl of 5% TCA was added and the samples were centrifuged at 2000×g at 4° C. for 5 min. The supernatant was discarded and this step was repeated again. The precipitate was resuspended in 1ml of 1N NaOH and vortexed. 400 μl or NaOH plus 400 μl of 1N HCl with 8ml Ecolume was used as a background blank. Vials were counted the following day.
We next determined whether the topical administration of structurally similar but less efficient β-glucosidase inhibitors would induce epidermal hyperproliferation. Animals were treated topically twice daily with either Conduritol-B-epoxide, Conduritol B (CB), or deoxynojirimycin (dNJM), each at 40 μl of 250 nmol/μl twice daily, as described in Example 10. After 24 hours, [^3H]-thymidine was injected intraperitoneally and incorporation of thymidine into DNA was determined (FIG. 26 A&B). […] This reduced activity is a result of the relative availability of these inhibitors to in vivo tissues.
Animals were treated as described in Example 10.
We next determined whether occlusion with a vapor-impermeable membrane would enhance the effects of a β-glucocerebrosidase inhibitor on epidermal DNA synthesis. […] After 24 hrs animals were injected with [^3H]-thymidine, and incorporation into DNA was determined (Proksch, et. al., J. Clin. Invest. 87:1668-1673, 1991).

[4] = tested on: hairless mouse skin; experiment: Appearance and texture of treated skin; type: in vivo; conditions: application of CBE
Method: To determine whether inhibitors of β-glucocerebrosidase would cause more profound effects than applications of exogenous GlcCER alone (examples 5&6), we next applied the specific, suicide inhibitor, bromoconduritol-B-epoxide (BrCBE) to intact hairless mouse skin (Simonsen Laboratories, Gilroy, Calif.) (Holleran, W. M. et al., J. Clin. Invest. (1993) 91:1656-1664). BrCBE (325 nmol in 20 μl propylene glycol:ethanol, 7:3 vols) was applied once daily for 0-14 days. (Holleran, W. M. et al. (1994) J. Clin. Inv. 93:1756-1764)

Which “proliferative index, CBE-treated over control epidermis ([3H]-thymidine incorporation)” value [1] does the source give for `O[C@H]1[C@H](O)[C@@H](O)[C@@H]2O[C@@H]2[C@@H]1O` (racemic) [CBE, conduritol-B-epoxide] here?
The value was “approximately 1.6”.

What about the “DNA concentration, higher than untreated samples” value ([2]; 24 hours following CBE treatment, FIG. 20 & 21) of the same compound?
Its value is 6-81%.

And the “DNA concentration, higher than untreated samples” value ([2]; 3 days of CBE-treatment, FIG. 19)?
Its value is 45-113%.

What about the “DNA concentration, higher than untreated skin samples” value ([2]; 5 days of CBE-treatment, FIG. 18) of the same compound?
The value was 46-331%.

And the “DNA synthesis, CBE, GlcCER and occlusion” value ([3]; latex wrap, 24 hrs)?
Its value is “increased DNA synthesis”.

What about the “epidermal DNA synthesis ([3H]-thymidine incorporation)” value ([3]; topical 40 μl of 250 nmol/μl twice daily, after 24 hours) of the same compound?
The value was “potent stimulation”.

What about the “DNA synthesis rates, CBE+occlusion vs CBE alone” value ([3]; water-vapor impermeable latex wrap, 24 hrs, 4 separate studies) of the same compound?
Its value is “equivalent or higher”.

And the “thickness, firmness and pliability of murine skin” value [4]?
The value was “increased”.
